Reference: US20220280584A1, “CROTON LECHLERI COMPOSITIONS FOR USE IN TREATING BLEEDING, WOUNDS AND INFECTIONS” (priority 2019, published 2022)
Converted amounts (≈) assume the structure as drawn.

Legend:
[1] = test system: MSSA and MRSA (Staphylococcus aureus); experiment: MIC, in vitro assay of MSSA and MRSA (2-fold microdilution); format: cell-based; details: for MIC: Staphylococcus aureus
the cells = details: Chen, Planta Med. 60 (1994), cited from earlier work; for Effect on cell proliferation: compounds obtained through extraction; for Wound healing properties / healing effects: Ecuadorian sap
S. pyogenes = experiment: MIC against S. pyogenes (Erythromycin and Tetracycline resistant strains); format: cell-based; details: Streptococcus pyogenes, antibiotic screening
Method: Tables 14 and 15 show an assay whose setup is same as what was used for screening S. aureus and P. aeruginosa (i.e. 2-fold microdilution). The 20 strains of S. pyogenes assayed were selected from the two rounds of antibiotic screening to identify Erythromycin and Tetracycline resistant strains. […] For this feasibility study, AB-101 Lot 1 and Lot 2 was used. P. aeruginosa ATCC 27853 was tested as a positive control for AB-101 activity.

[2] = test system: MSSA and MRSA (Staphylococcus aureus); experiment: MBC, in vitro assay of MSSA and MRSA; format: cell-based

Question: Which MIC ([1]; strain 1674606, MupirocinR, MSSA) does the source give for `C/C(=C\C(=O)OCCCCCCCCC(=O)O)C[C@@H]1OC[C@H](C[C@@H]2O[C@H]2[C@@H](C)[C@H](C)O)[C@@H](O)[C@H]1O` [Mupirocin] here?
Answer: Its MIC is > 256 µg/mL.

Question: What about the MIC ([1]; strain 1674607, MupirocinR, MRSA) of the same compound?
Answer: Its MIC is > 256 µg/mL.

Question: What about the MIC ([1]; strain CDC 227, MupirocinS, MRSA) of the same compound?
Answer: Its MIC is 0.25 to 0.5 µg/mL (≈ 0.499 to 0.999 µM).

Question: What about the MIC ([1]; strain CDC 462, MupirocinS, MSSA) of the same compound?
Answer: Its MIC is ≤ 0.25 µg/mL.

Question: And the MIC ([1]; strain CDC 464, MupirocinS, MSSA)?
Answer: Its MIC is ≤ 0.25 µg/mL.

Question: And the MIC ([1]; strain CDC 484, MupirocinS, MSSA)?
Answer: The MIC was ≤ 0.25 µg/mL.

Question: And the MIC ([1]; strain CDC 485, MupirocinS, MSSA)?
Answer: Its MIC is ≤ 0.25 µg/mL.

Question: With Catechin as the compound, how does the “Effect on cell proliferation” value (the cells) read?
Answer: Its value is “little effect”.

Question: With `CN[C@H](CC(C)C)C(=O)N[C@H]1C(=O)N[C@@H](CC(N)=O)C(=O)N[C@H]2C(=O)N[C@H]3C(=O)N[C@H](C(=O)N[C@H](C(=O)O)c4cc(O)cc(O)c4-c4cc3ccc4O)[C@H](O)c3ccc(c(Cl)c3)Oc3cc2cc(c3O[C@@H]2O[C@H](CO)[C@@H](O)[C@H](O)[C@H]2O[C@H]2C[C@](C)(N)[C@H](O)[C@H](C)O2)Oc2ccc(cc2Cl)[C@H]1O` [Vancomycin] as the compound, how does the MIC (S. pyogenes; S. pyogenes strain 1744264) read?
Answer: The MIC was 0.5 µg/mL (≈ 0.345 µM).

Question: What about the MIC (S. pyogenes; S. pyogenes strain 1744265) of the same compound?
Answer: Its MIC is 8 µg/mL (≈ 5.52 µM).

Question: What about the MIC (S. pyogenes; S. pyogenes strain 1744271) of the same compound?
Answer: Its MIC is 0.5 µg/mL (≈ 0.345 µM).

Question: What about the MIC (S. pyogenes; S. pyogenes strain 1744272) of the same compound?
Answer: Its MIC is 1 µg/mL (≈ 0.69 µM).

Question: What about the MIC (S. pyogenes; S. pyogenes strain 1744275) of the same compound?
Answer: Its MIC is 0.25 to 0.5 µg/mL (≈ 0.173 to 0.345 µM).

Question: What about the MIC (S. pyogenes; S. pyogenes strain 1744277) of the same compound?
Answer: Its MIC is 4 µg/mL (≈ 2.76 µM).

Question: What about the MIC (S. pyogenes; S. pyogenes strain 1744285) of the same compound?
Answer: The MIC was 0.5 µg/mL (≈ 0.345 µM).

Question: What about the MIC (S. pyogenes; S. pyogenes strain 2065754) of the same compound?
Answer: Its MIC is 0.5 µg/mL (≈ 0.345 µM).

Question: And the MIC (S. pyogenes; S. pyogenes strain 2065755)?
Answer: Its MIC is 0.5 µg/mL (≈ 0.345 µM).

Question: What about the MIC (S. pyogenes; S. pyogenes strain 2065756) of the same compound?
Answer: Its MIC is 0.5 µg/mL (≈ 0.345 µM).

Question: What about the MIC (S. pyogenes; S. pyogenes strain 2065757) of the same compound?
Answer: Its MIC is 0.5 µg/mL (≈ 0.345 µM).

Question: What about the MIC (S. pyogenes; S. pyogenes strain 2065759) of the same compound?
Answer: The MIC was 0.5 µg/mL (≈ 0.345 µM).

Question: And the MIC (S. pyogenes; S. pyogenes strain 2065760)?
Answer: The MIC was 0.5 µg/mL (≈ 0.345 µM).

Question: What about the MIC (S. pyogenes; S. pyogenes strain 2065761) of the same compound?
Answer: Its MIC is 0.5 µg/mL (≈ 0.345 µM).

Question: What about the MIC (S. pyogenes; S. pyogenes strain 2065762) of the same compound?
Answer: The MIC was 0.5 µg/mL (≈ 0.345 µM).

Question: What about the MIC (S. pyogenes; S. pyogenes strain 2065763) of the same compound?
Answer: The MIC was 0.5 µg/mL (≈ 0.345 µM).

Question: And the MIC (S. pyogenes; S. pyogenes strain 2065765)?
Answer: Its MIC is 2 to 4 µg/mL (≈ 1.38 to 2.76 µM).

Question: What about the MIC (S. pyogenes; S. pyogenes strain 20658748) of the same compound?
Answer: Its MIC is 0.25 to 0.5 µg/mL (≈ 0.173 to 0.345 µM).

Question: And the MIC (S. pyogenes; S. pyogenes strain 20658749)?
Answer: The MIC was 0.5 µg/mL (≈ 0.345 µM).

Question: What about the MIC (S. pyogenes; S. pyogenes strain 20658750) of the same compound?
Answer: Its MIC is 0.5 µg/mL (≈ 0.345 µM).

Question: Which “Effect on cell proliferation” value (the cells) does the source give for `Oc1cc(O)c2c(c1)O[C@H](c1cc(O)c(O)c(O)c1)[C@H](O)C2` [Epigallocatechin] here?
Answer: The value was “slightly stimulating”.

Question: For `COc1ccc([C@H]2Oc3c(OC)cc(CCCO)cc3[C@@H]2CO)cc1OC` [dimethylcedrusin], which “Wound healing properties / healing effects” value (the cells) is on record?
Answer: Its value is “little healing effects”.

Question: For `Oc1cc(O)c2c(c1)O[C@H](c1cc(O)c(O)c(O)c1)[C@@H](O)C2` [Gallocatechin], which “Effect on cell proliferation” value (the cells) is on record?
Answer: The value was “slightly stimulating”.

Question: Which results are given for `COc1ccc2c(=O)oc3c(OC)cc(CCN(C)C)c4c(=O)oc1c2c34` [Taspine]?
Answer: Activity against MSSA and MRSA (MBC) ([2]; purified extract of taspine): does not have activity; MBC (% relative to amount in AB-101) ([2]; strain ATCC 29213, QC control): >50 % relative to amount in AB-101; Wound healing properties / healing effects (the cells): little healing effects; Activity against MSSA and MRSA (MIC) ([1]; purified extract of taspine, highest concentration tested 50% relative to AB-101 = 10 μg/mL): does not have activity; MIC (% relative to amount in AB-101) ([1]; strain ATCC 29213, QC control, 50% = 10 μg/mL taspine): >50 % relative to amount in AB-101
